# Experimental data from PubChem BioAssay (NCI).
#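 Interpolation was linear, between the two tested concentrations surrounding the appropriate level; five concentrations were tested over 48 hours in 96-well plates. GI50 marks 50% less growth. TGI: concentration producing complete growth inhibition.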
# Legend:
# Experiment in all cases: NCI-60 cell line screen, 48 h
# MALME-3M melanoma = system: MALME-3M melanoma
# SK-MEL-2 melanoma = system: SK-MEL-2 melanoma
# OVCAR-3 ovarian = system: OVCAR-3 ovarian
# SNB-19 CNS = system: SNB-19 CNS
# SF-268 CNS = system: SF-268 CNS
# HS 578T breast = system: HS 578T breast
# HT29 colon = system: HT29 colon
# MCF7 breast = system: MCF7 breast
# UACC-62 melanoma = system: UACC-62 melanoma
# NCI-H23 lung = system: NCI-H23 lung
# NCI-H522 lung = system: NCI-H522 lung
# UO-31 renal = system: UO-31 renal
# HL-60(TB) leukemia = system: HL-60(TB) leukemia
# BT-549 breast = system: BT-549 breast
# RPMI-8226 leukemia = system: RPMI-8226 leukemia
# UACC-257 melanoma = system: UACC-257 melanoma
# PC-3 prostate = system: PC-3 prostate
# A498 renal = system: A498 renal
# SW-620 colon = system: SW-620 colon
# SK-MEL-28 melanoma = system: SK-MEL-28 melanoma
# M14 melanoma = system: M14 melanoma
# SF-539 CNS = system: SF-539 CNS
# TK-10 renal = system: TK-10 renal
# A549 NSCLC = system: A549 NSCLC
# OVCAR-4 ovarian = system: OVCAR-4 ovarian
# HOP-62 NSCLC = system: HOP-62 NSCLC
# CCRF-CEM leukemia = system: CCRF-CEM leukemia
# MDA-MB-231 breast = system: MDA-MB-231 breast
# HCC-2998 colon = system: HCC-2998 colon
smiles,measurement,setting,value
CSc1ccccc1NC(=O)c1ccc2nn(/C(C#N)=C/c3ccccn3)nc2c1,TGI,MALME-3M melanoma,4.25 µM
same,GI50,SK-MEL-2 melanoma,6.47 µM
same,TGI,SK-MEL-2 melanoma,20 µM
same,GI50,OVCAR-3 ovarian,2.29 µM
same,TGI,OVCAR-3 ovarian,5.95 µM
same,GI50,SNB-19 CNS,12.8 µM
same,TGI,SNB-19 CNS,26.5 µM
same,GI50,SF-268 CNS,10.3 µM
same,TGI,SF-268 CNS,28.1 µM
same,GI50,HS 578T breast,3.19 µM
same,TGI,HS 578T breast,14.3 µM
same,GI50,HT29 colon,3.09 µM
same,TGI,HT29 colon,10.1 µM
same,GI50,MCF7 breast,3 µM
same,TGI,MCF7 breast,13.1 µM
same,GI50,UACC-62 melanoma,3.77 µM
same,TGI,UACC-62 melanoma,14.6 µM
same,GI50,NCI-H23 lung,5.13 µM
same,TGI,NCI-H23 lung,18.2 µM
same,GI50,NCI-H522 lung,1.65 µM
same,TGI,NCI-H522 lung,3.43 µM
same,GI50,UO-31 renal,2.01 µM
same,TGI,UO-31 renal,4.74 µM
same,GI50,HL-60(TB) leukemia,2.07 µM
same,TGI,HL-60(TB) leukemia,6.58 µM
same,GI50,BT-549 breast,6.17 µM
same,TGI,BT-549 breast,18.7 µM
same,GI50,RPMI-8226 leukemia,2.63 µM
same,TGI,RPMI-8226 leukemia,8.32 µM
same,GI50,UACC-257 melanoma,2.57 µM
same,TGI,UACC-257 melanoma,7.49 µM
same,GI50,PC-3 prostate,7.04 µM
same,TGI,PC-3 prostate,23.7 µM
same,GI50,A498 renal,16 µM
same,TGI,A498 renal,29.7 µM
same,GI50,SW-620 colon,2.29 µM
same,TGI,SW-620 colon,5.39 µM
same,GI50,SK-MEL-28 melanoma,2.06 µM
same,TGI,SK-MEL-28 melanoma,4.57 µM
same,GI50,M14 melanoma,2.96 µM
same,TGI,M14 melanoma,10.4 µM
same,GI50,SF-539 CNS,2.8 µM
same,TGI,SF-539 CNS,8.64 µM
same,GI50,TK-10 renal,4.26 µM
same,TGI,TK-10 renal,15.9 µM
same,GI50,A549 NSCLC,12.2 µM
same,TGI,A549 NSCLC,28.5 µM
same,GI50,OVCAR-4 ovarian,6.5 µM
same,TGI,OVCAR-4 ovarian,19.5 µM
same,GI50,HOP-62 NSCLC,13.1 µM
same,TGI,HOP-62 NSCLC,27.2 µM
same,GI50,CCRF-CEM leukemia,3.13 µM
same,TGI,CCRF-CEM leukemia,30.7 µM
same,GI50,MDA-MB-231 breast,2.91 µM
same,TGI,MDA-MB-231 breast,8.48 µM
same,GI50,HCC-2998 colon,4.08 µM
same,TGI,HCC-2998 colon,14.6 µM
